These results are taken from patent US20220411525A1, “BCMA AS A TARGET FOR T CELL REDIRECTING ANTIBODIES IN B CELL LYMPHOMAS” (Janssen Pharmaceutica NV, priority 2021, published 2022).

Assay [1] relates to B cell malignancy cell lines. Nature of the assay: BCMA membrane level by flow cytometry after γ-secretase inhibition. The format is cell-based. The conditions noted are these: 100nM, 24-48 h, all B cell malignancy cell lines. The method, then:
(§1) To evaluate whether other malignancies besides multiple myeloma (MM) can potentially be targeted by BCMA directed immunotherapy, B cell malignancy cell lines were assessed for BCMA expression by flow cytometry. […] Per FIG. 1A, B cell malignancy cell lines were cultured and basal levels of BCMA were assessed by flow cytometry and compared to isotype controls. (n=3-8). Dotted line indicates no increase compared to isotype control. In accordance with FIG. 1B, cell lines were treated for 24-48h with 100nM γ-secretase inhibitor or with medium control and BCMA was assessed by flow cytometry. Values are represented as fold increase compared to 0 nM γ-secretase inhibitor. (n=3-12) Dotted line indicates no increase compared to 0 nM γ-secretase inhibitor. FIG. 1C represents the results of an asssessment of soluble BCMA by ELISA in supernatants of B cell malignancy cell lines after treatment with 0 nM or 100 nM γ-secretase inhibitor for 24-48 h. (n=2). […] The P value was calculated by paired t test of Wilcoxon test (FIG. 1A-1B) or simple linear regression (FIG. 1E). […]
(§2) Since BCMA is known to be cleaved off by γ-secretase, it was evaluated whether inhibition of this enzyme would lead to enhanced BCMA levels on these B cell lines. […]
(§3) Flow cytometry. […] After antibody staining, samples were washed using PBA and acquired on BD FACS Canto or LSR Fortessa flow cytometer and analysed with FlowJo v10. […]

Assay [2] relates to Jurkat cells. The experiment in a line: BCMA membrane level by flow cytometry after γ-secretase inhibition, Jurkat. In kind it is cell-based. The note with it: 100nM, 24-48 h. The protocol: as §1, §2, §3

The structures appear in SMILES notation.

For `C[C@H](NC(=O)[C@@H](O)c1cc(F)cc(F)c1)C(=O)N[C@@H]1C(=O)N(C)c2ccccc2-c2ccccc21` [Ly411575], the “BCMA level after γ-secretase inhibition compared to unstimulated cells” value in assay [1] is “increased BCMA level”. The “BCMA level after γ-secretase inhibition” value in assay [2] was “no upregulation of BCMA”.
